This passage reports EC50 and Emax results from patent publication US20240208992A1, “MACROCYCLES AS CFTR MODULATORS” (Idorsia Pharmaceuticals Ltd, priority 2021, published 2024).

This assay concerns the target human F508del-CFTR (Homo sapiens, UniProt P13569, DEL508-508). Briefly: F508del-CFTR cell surface expression (corrector activity), DiscoveRx ß-galactosidase complementation chemiluminescence assay in recombinant U2OS cell line.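 For all read-outs here: U2OS cells co-expressing ProLink-tagged F508del-CFTR and a membrane-anchored enzyme acceptor, where more surface CFTR restores β-galactosidase activity measured by chemiluminescence.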 To be noted: for EC50: EC50, F508del-CFTR cell surface expression, U2OS cells, 16h compound incubation, geomean values; for Emax: U2OS, in relation to Emax of corrector lumacaftor (=100%), arithmetic mean values.

Structures are written as SMILES.

Chain of human F508del-CFTR (P13569 with tags, fused parts or gaps DEL508-508): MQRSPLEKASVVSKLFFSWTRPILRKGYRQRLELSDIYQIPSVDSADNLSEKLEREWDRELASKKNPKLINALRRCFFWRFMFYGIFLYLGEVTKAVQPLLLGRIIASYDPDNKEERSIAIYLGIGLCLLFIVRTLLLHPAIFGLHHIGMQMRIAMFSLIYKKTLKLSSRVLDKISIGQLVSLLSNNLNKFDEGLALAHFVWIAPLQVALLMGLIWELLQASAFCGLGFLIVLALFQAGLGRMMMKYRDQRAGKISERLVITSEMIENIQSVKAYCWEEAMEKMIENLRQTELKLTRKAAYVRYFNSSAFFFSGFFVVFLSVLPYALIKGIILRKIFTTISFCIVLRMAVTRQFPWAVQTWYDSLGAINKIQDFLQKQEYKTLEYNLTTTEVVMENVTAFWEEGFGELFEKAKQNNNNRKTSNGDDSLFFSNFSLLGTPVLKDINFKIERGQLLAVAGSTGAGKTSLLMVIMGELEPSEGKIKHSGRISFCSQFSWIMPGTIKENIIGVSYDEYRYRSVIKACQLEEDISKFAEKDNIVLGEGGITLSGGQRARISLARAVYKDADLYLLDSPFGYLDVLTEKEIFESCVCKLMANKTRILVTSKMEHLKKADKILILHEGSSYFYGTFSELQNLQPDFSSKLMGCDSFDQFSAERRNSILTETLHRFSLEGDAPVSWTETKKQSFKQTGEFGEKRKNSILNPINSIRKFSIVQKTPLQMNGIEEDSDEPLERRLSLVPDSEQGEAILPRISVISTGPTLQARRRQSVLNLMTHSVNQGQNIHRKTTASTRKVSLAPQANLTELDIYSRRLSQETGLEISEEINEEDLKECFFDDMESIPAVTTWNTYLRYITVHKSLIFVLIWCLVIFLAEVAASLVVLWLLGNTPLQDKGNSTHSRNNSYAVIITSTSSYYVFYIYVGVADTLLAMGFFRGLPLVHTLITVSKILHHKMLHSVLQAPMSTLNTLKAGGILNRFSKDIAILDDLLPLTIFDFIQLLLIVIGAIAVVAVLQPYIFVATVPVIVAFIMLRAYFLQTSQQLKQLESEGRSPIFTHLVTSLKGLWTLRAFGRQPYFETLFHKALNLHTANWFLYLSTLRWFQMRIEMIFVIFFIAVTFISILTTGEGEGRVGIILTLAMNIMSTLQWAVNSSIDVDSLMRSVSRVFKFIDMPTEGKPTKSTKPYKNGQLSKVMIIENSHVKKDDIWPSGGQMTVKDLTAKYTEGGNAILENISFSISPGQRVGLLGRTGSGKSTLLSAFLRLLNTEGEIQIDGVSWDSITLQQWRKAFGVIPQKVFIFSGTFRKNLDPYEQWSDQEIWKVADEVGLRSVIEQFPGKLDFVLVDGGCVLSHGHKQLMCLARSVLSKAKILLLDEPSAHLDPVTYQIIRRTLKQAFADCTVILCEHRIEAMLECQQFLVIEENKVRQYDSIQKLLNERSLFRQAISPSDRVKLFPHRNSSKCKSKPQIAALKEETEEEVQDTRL

As usually defined, the EC50 is the concentration needed to bring the measured effect to its halfway point. For orientation: Emax means the size of the effect at its maximum, as opposed to the concentration needed. Consider `Cc1cc(CCNC(=O)[C@@H]2CC(=O)N(C)[C@@H](CC(C)C)C(=O)N(C)[C@H](CC(F)F)C(=O)N[C@H](Cc3ccccc3)COc3cnc4ccccc4c3C(=O)N2)on1` [Example 699, (3S,7S,10R,13R)-13-benzyl-10-(2,2-difluoroethyl)-7-isobutyl-6,9-dimethyl-N-(2-(3-methylisoxazol-5-yl)ethyl)-1,5,8,11-tetraoxo-1,2,3,4,5,6,7,8,9,10,11,12,13,14-tetradecahydro-[1]oxa[4,7,10,14]tetraazacycloheptadecino[17,16-c]quinoline-3-carboxamide], for which the EC50 turned out to be 0.299 µM and the Emax came out at 338%.

For the molecule `CC(C)C[C@H]1C(=O)N(CC2COc3ccccc3C2)CC(=O)N[C@H](Cc2ccccc2)COc2ccc3ccccc3c2C(=O)N[C@H](C(=O)NCCc2ccc3c(c2)OCO3)CC(=O)N1C` (stereo partly drawn) [Example 700, (3S,7S,13R)—N-(2-(Benzo[d][1,3]dioxol-5-yl)ethyl)-13-benzyl-9-(((S)-chroman-3-yl)methyl)-7-isobutyl-6-methyl-1,5,8,11-tetraoxo-1,2,3,4,5,6,7,8,9,10,11,12,13,14-tetradecahydronaphtho[1,2-p][1]oxa[4,7,10,14]tetraazacycloheptadecine-3-carboxamide], the EC50 stood at 0.188 µM and the Emax was 186%.

Consider `COc1cccc(CCNC(=O)[C@@H]2CC(=O)N(C)[C@@H](CC(C)C)C(=O)N(CCC3CCCCC3)CC(=O)N[C@H](Cc3ccccn3)COc3ccc4ccccc4c3C(=O)N2)c1` [Example 701, (3S,7S,13R)-9-(2-cyclohexylethyl)-7-isobutyl-N-(3-methoxyphenethyl)-6-methyl-1,5,8,11-tetraoxo-13-(pyridin-2-ylmethyl)-1,2,3,4,5,6,7,8,9,10,11,12,13,14-tetradecahydronaphtho[1,2-p][1]oxa[4,7,10,14]tetraazacycloheptadecine-3-carboxamide], for which the EC50 stood at 0.165 µM and the Emax amounted to 268%.

Take `Cc1cc(CCNC(=O)[C@@H]2CC(=O)N(C)[C@@H](CC(C)C)C(=O)N(CC3Cc4ccccc4O3)CC(=O)N[C@H](Cc3ccccc3)COc3cnc4ccccc4c3C(=O)N2)on1` (stereo partly drawn) [Example 702, (3S,7S,13R)-13-benzyl-9-((2,3-dihydrobenzofuran-2-yl)methyl)-7-isobutyl-6-methyl-N-(2-(3-methylisoxazol-5-yl)ethyl)-1,5,8,11-tetraoxo-1,2,3,4,5,6,7,8,9,10,11,12,13,14-tetradecahydro-[1]oxa[4,7,10,14]tetraazacycloheptadecino[17,16-c]quinoline-3-carboxamide]: the EC50 worked out at 0.295 µM and the Emax was 162%.

For `Cc1cc(CCNC(=O)[C@@H]2CC(=O)N(C)[C@@H](CC(C)C)C(=O)N(CC[C@@H]3CCCCO3)CC(=O)N[C@H](Cc3csc4ccccc34)COc3cnc4ccccc4c3C(=O)N2)on1` [Example 703, (3S,7S,13R)-13-(benzo[b]thiophen-3-ylmethyl)-7-isobutyl-6-methyl-N-(2-(3-methylisoxazol-5-yl)ethyl)-1,5,8,11-tetraoxo-9-(2-((S)-tetrahydro-2H-pyran-2-yl)ethyl)-1,2,3,4,5,6,7,8,9,10,11,12,13,14-tetradecahydro-[1]oxa[4,7,10,14]tetraazacycloheptadecino[17,16-c]quinoline-3-carboxamide], the EC50 was determined as 0.316 µM and the maximal effect (Emax) was 167%.

Turning to `Cc1cc(CCNC(=O)[C@@H]2CC(=O)N(C)[C@@H](CC(C)C)C(=O)N(C[C@H]3COc4ccccc4C3)CC(=O)N[C@H](Cc3ccccc3)COc3cnc4ccccc4c3C(=O)N2)on1` [Example 704, (3S,7S,13R)-13-benzyl-9-(((S)-chroman-3-yl)methyl)-7-isobutyl-6-methyl-N-(2-(3-methylisoxazol-5-yl)ethyl)-1,5,8,11-tetraoxo-1,2,3,4,5,6,7,8,9,10,11,12,13,14-tetradecahydro-[1]oxa[4,7,10,14]tetraazacycloheptadecino[17,16-c]quinoline-3-carboxamide], the EC50 amounted to 0.398 µM and the Emax is 156%.

As for `Cc1cc(CCNC(=O)[C@@H]2CC(=O)N(C)[C@@H](CC(C)C)C(=O)N(C[C@@H]3COc4ccccc4C3)CC(=O)N[C@H](Cc3ccccc3)COc3cnc4ccccc4c3C(=O)N2)on1` [Example 705, (3S,7S,13R)-13-benzyl-9-(((R)-chroman-3-yl)methyl)-7-isobutyl-6-methyl-N-(2-(3-methylisoxazol-5-yl)ethyl)-1,5,8,11-tetraoxo-1,2,3,4,5,6,7,8,9,10,11,12,13,14-tetradecahydro-[1]oxa[4,7,10,14]tetraazacycloheptadecino[17,16-c]quinoline-3-carboxamide], the EC50 worked out at 0.305 µM and the maximal response (Emax) is 193%.

In the case of `Cc1cc(CCNC(=O)[C@@H]2CC(=O)N(C)[C@@H](CC(C)C)C(=O)N(C[C@H]3CCCC(C)(C)O3)CC(=O)N[C@H](Cc3ccccc3)COc3cnc4ccccc4c3C(=O)N2)on1` [Example 706, (3S,7S,13R)-13-benzyl-9-(((R)-6,6-dimethyltetrahydro-2H-pyran-2-yl)methyl)-7-isobutyl-6-methyl-N-(2-(3-methylisoxazol-5-yl)ethyl)-1,5,8,11-tetraoxo-1,2,3,4,5,6,7,8,9,10,11,12,13,14-tetradecahydro-[1]oxa[4,7,10,14]tetraazacycloheptadecino[17,16-c]quinoline-3-carboxamide], the EC50 worked out at 0.707 µM and the maximal response (Emax) is 162%.

`Cc1cc(CCNC(=O)[C@@H]2CC(=O)N(C)[C@@H](CC(C)C)C(=O)N(C[C@@H]3CCCC(C)(C)O3)CC(=O)N[C@H](Cc3ccccc3)COc3cnc4ccccc4c3C(=O)N2)on1` [Example 707, (3S,7S,13R)-13-benzyl-9-(((S)-6,6-dimethyltetrahydro-2H-pyran-2-yl)methyl)-7-isobutyl-6-methyl-N-(2-(3-methylisoxazol-5-yl)ethyl)-1,5,8,11-tetraoxo-1,2,3,4,5,6,7,8,9,10,11,12,13,14-tetradecahydro-[1]oxa[4,7,10,14]tetraazacycloheptadecino[17,16-c]quinoline-3-carboxamide]: the EC50 was determined as 0.502 µM and the Emax is 305%.

As for `Cc1cc(CCNC(=O)[C@@H]2CC(=O)N(C)[C@@H](CC(C)C)C(=O)N(C)C3(CCCC3)C(=O)N[C@H](Cc3ccccc3)COc3cnc4ccccc4c3C(=O)N2)on1` [Example 708, (3′S,7′S,13′R)-13′-benzyl-7′-isobutyl-6′,9′-dimethyl-N-(2-(3-methylisoxazol-5-yl)ethyl)-1′,5′,8′,11′-tetraoxo-2′,3′,4′,5′,6′,7′,8′,9′,11′,12′,13′,14′-dodecahydro-1′H-spiro[cyclopentane-1,10′-[1]oxa[4,7,10,14]tetraazacycloheptadecino[17,16-c]quinoline]-3′-carboxamide], the EC50 is 0.874 µM and the Emax turned out to be 195%.

As to `Cc1cc(CCNC(=O)[C@@H]2CC(=O)N(C)[C@@H](CC(C)C)C(=O)N(C)[C@H](CC3CCCCC3)C(=O)N[C@H](Cc3ccccc3)COc3cnc4ccccc4c3C(=O)N2)on1` [Example 709, (3S,7S,10R,13R)-13-benzyl-10-(cyclohexylmethyl)-7-isobutyl-6,9-dimethyl-N-(2-(3-methylisoxazol-5-yl)ethyl)-1,5,8,11-tetraoxo-1,2,3,4,5,6,7,8,9,10,11,12,13,14-tetradecahydro-[1]oxa[4,7,10,14]tetraazacycloheptadecino[17,16-c]quinoline-3-carboxamide], the 50% effective concentration (EC50) was 0.047 µM and the maximum response (Emax) was 284%.

Turning to `Cc1cc(CCNC(=O)[C@@H]2CC(=O)N(C)[C@@H](CC(C)C)C(=O)N(C)[C@H](C3CCCC3)C(=O)N[C@H](Cc3ccccc3)COc3cnc4ccccc4c3C(=O)N2)on1` [Example 710, (3S,7S,10R,13R)-13-benzyl-10-cyclopentyl-7-isobutyl-6,9-dimethyl-N-(2-(3-methylisoxazol-5-yl)ethyl)-1,5,8,11-tetraoxo-1,2,3,4,5,6,7,8,9,10,11,12,13,14-tetradecahydro-[1]oxa[4,7,10,14]tetraazacycloheptadecino[17,16-c]quinoline-3-carboxamide], the EC50 was 0.149 µM and the Emax was 280%.

Consider `Cc1cc(CCNC(=O)[C@@H]2CC(=O)N(C)[C@@H](CC(C)C)C(=O)N(C)C3(CC(F)(F)C3)C(=O)N[C@H](Cc3ccccc3)COc3cnc4ccccc4c3C(=O)N2)on1` [Example 711, (3′S,7′S,13′R)-13′-benzyl-3,3-difluoro-7′-isobutyl-6′,9′-dimethyl-N-(2-(3-methylisoxazol-5-yl)ethyl)-1′,5′,8′,11′-tetraoxo-2′,3′,4′,5′,6′,7′,8′,9′,11′,12′,13′,14′-dodecahydro-1′H-spiro[cyclobutane-1,10′-[1]oxa[4,7,10,14]tetraazacycloheptadecino[17,16-c]quinoline]-3′-carboxamide], for which the EC50 worked out at 0.778 µM and the Emax was 301%.

`Cc1cc(CCNC(=O)[C@@H]2CC(=O)N(C)[C@@H](CC(C)C)C(=O)N(C)[C@H](COCc3ccccc3)C(=O)N[C@H](Cc3ccccc3)COc3ccc4ccccc4c3C(=O)N2)on1` [Example 714, (3S,7S,10R,13R)-13-benzyl-10-((benzyloxy)methyl)-7-isobutyl-6,9-dimethyl-N-(2-(3-methylisoxazol-5-yl)ethyl)-1,5,8,11-tetraoxo-1,2,3,4,5,6,7,8,9,10,11,12,13,14-tetradecahydronaphtho[1,2-p][1]oxa[4,7,10,14]tetraazacycloheptadecine-3-carboxamide]: the EC50 was found to be 0.036 µM and the maximal effect (Emax) amounted to 410%.

With `COc1cccc(CCNC(=O)[C@@H]2CC(=O)N(C)[C@@H](CC(C)C)C(=O)N(C)[C@@H](COCc3ccccc3)C(=O)N[C@H](Cc3ccccc3)COc3ccc4ccccc4c3C(=O)N2)c1` [Example 715, (3S,7S,10S,13R)-13-benzyl-10-((benzyloxy)methyl)-7-isobutyl-N-(3-methoxyphenethyl)-6,9-dimethyl-1,5,8,11-tetraoxo-1,2,3,4,5,6,7,8,9,10,11,12,13,14-tetradecahydronaphtho[1,2-p][1]oxa[4,7,10,14]tetraazacycloheptadecine-3-carboxamide], the EC50 worked out at 0.064 µM and the Emax came out at 283%.
